These results are taken from PubChem BioAssay (NCI).

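Interpolation was linear, between the two tested concentrations surrounding the appropriate level; five concentrations were tested over 48 hours in 96-well plates. GI50 marks 50% less growth. At the TGI there is no net growth.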

Among the test systems are A549 NSCLC; COLO 205 colon; SW-620 colon; CAKI-1 renal; NCI/ADR-RES ovarian; SK-MEL-2 melanoma; CCRF-CEM leukemia; OVCAR-5 ovarian; SNB-75 CNS; A498 renal.
Holding throughout (assay): NCI-60 cell line screen, 48 h

On to `NC1CCC(Nc2nc(NCc3ccc(-c4ccccc4O)nc3)c3ncn(C4CCCC4)c3n2)CC1` (stereo not given), for which the GI50 was < 10 nM in the test with A549 NSCLC; 12 nM with COLO 205 colon; < 10 nM in the test on SW-620 colon; 380 nM with CAKI-1 renal; 135 nM in the test with NCI/ADR-RES ovarian; 22.7 nM in the test with SK-MEL-2 melanoma. For the same molecule, the GI50 in the test on CCRF-CEM leukemia is < 10 nM; with OVCAR-5 ovarian, 32.2 nM; with SNB-75 CNS, 12.1 nM; in the test with A498 renal, 23.3 nM. In addition, the TGI was determined as 1.18 µM in the test with A549 NSCLC; 0.0278 µM in the test with COLO 205 colon; 1.23 µM in the test with SW-620 colon; 2.2 µM in the test on CAKI-1 renal; 2.18 µM in the test with NCI/ADR-RES ovarian; 0.0583 µM with SK-MEL-2 melanoma. Besides, the TGI with CCRF-CEM leukemia was 1.22 µM; with OVCAR-5 ovarian it was 1.38 µM; in the test with SNB-75 CNS it was 0.0356 µM; in the test with A498 renal it was 0.0656 µM.
For the molecule `O=c1ccs[nH]1`, the TGI in the test on A549 NSCLC came out at 41.4 µM; in the test on COLO 205 colon, 30.9 µM; in the test with SW-620 colon, 50.1 µM; in the test on CAKI-1 renal, 22.2 µM; with NCI/ADR-RES ovarian, 50.5 µM; in the test on SK-MEL-2 melanoma, 61.3 µM. Moreover, the TGI worked out at 17.2 µM in the test on CCRF-CEM leukemia, 36.3 µM in the test with OVCAR-5 ovarian, 36.5 µM in the test with SNB-75 CNS and 99.6 µM with A498 renal.
